# Values of other authors in publication PMC2692938 (Nuclear medicine and biology, 2009).
# Tested on: αvβ3
# Conditions: selective αvβ3 antagonist
substance,measurement,value
c(RGDfV),IC50 values,lower nanomolar range
